Laboratory results published in patent US20210063414A1, “METHODS FOR PREVENTING AND/OR TREATING BONE LOSS CONDITIONS BY MODULATING IRISIN” (Dana-Farber Cancer Institute, Inc., priority 2018, published 2021).

Molecular target: T1, integrin αV/β5 (Homo sapiens, UniProt P06756+P18084)
T1 construct: expressed in transfected cells; host or cells: HEK293T
Test: FAK phosphorylation in HEK293T cells with forced expression of integrin αV/β5
Assay type: cell-based
Description: 100 nM irisin was incubated with 5 nM indicated his-tag integrins followed by immunoprecipitation using Ni-NTA agaroses. Precipitated integrins and co-precipitated irisin were analyzed by immunoblot analysis. […] HEK293T cells were seeded and incubated until 50% cell density. The cells were transfected with 0.1 μg plasmids of indicated integrins. After 48 hours, the cells were incubated with Freestyle293 medium for 3 hours and were treated with indicated concentration of irisin for 5 minutes. Cells were lysed to detect the indicated protein level using immunoblot analysis. […] MLO-Y4 cells were treated as described in FIG. 2D with addition of pretreatment of indicated antagonistic antibodies for 10 minutes. Cells were lysed to detect the indicated protein level using immunoblot analysis. […] MLO-Y4 cells were treated as described in FIG. 1B except with addition of the pretreatment of indicated antagonistic antibodies for 10 minutes. Sclerostin mRNA level was analyzed by qRT-PCR. Cyclophilin was used for house-keeping gene. […] The ribbon diagram is colored by HDX stabilization/destabilization. Percentages of deuterium differences are color-coded according to the smooth color gradient key at the bottom. Crystal structure of irisin dimer is from Protein Data Bank (PDB) (4 lsd) and a homology model of integrin β5 was built based on integrin β3 structure from PDB (4MMX).
100 nM irisin was incubated with 5 nM indicated his-tag integrins followed by immunoprecipitation using Ni-NTA agaroses. Precipitated integrins and co-precipitated irisin were analyzed by immunoblot analysis. […] HEK293T cells were seeded and incubated until 50% cell density. The cells were transfected with 0.1 μg plasmids of indicated integrins. After 48 hours, the cells were re-split to indicated dose of vitronectin-coated plates. Cells were incubated with culture medium for 3 hours. Cells were lysed to detect the indicated protein level using immunoblot analysis. FIG. 15C and FIG. 15D show the immunoblot data. Cells were treated and analyzed as FIG. 14B except using plasmids encoding integrin α5/β1 or integrin α11/β1 (FIG. 15C) integrin αV/β1(FIG. 15D).
MLO-Y4 cells were treated and analyzed as described in FIG. 5A with addition of pretreatment of control RGD peptide, cyclo RGDyK (cRGDyK), or SB273005. […] HEK293 cells were treated and analyzed as described in FIG. 14B except the treatment of different dose of cyclo RGDyK. […] 8 weeks old male mice were treated and analyzed as described in FIG. 5D except the additional group with co-injection of 1 mg/kg SB273005. […]
Cells were harvested in RIPA buffer containing protease-inhibitor cocktail and phosphataseinhibitor cocktail. […] Protein levels were analyzed via western blot using indicated antibody. […]

T1 sequence (P06756 31-889 limits assumed): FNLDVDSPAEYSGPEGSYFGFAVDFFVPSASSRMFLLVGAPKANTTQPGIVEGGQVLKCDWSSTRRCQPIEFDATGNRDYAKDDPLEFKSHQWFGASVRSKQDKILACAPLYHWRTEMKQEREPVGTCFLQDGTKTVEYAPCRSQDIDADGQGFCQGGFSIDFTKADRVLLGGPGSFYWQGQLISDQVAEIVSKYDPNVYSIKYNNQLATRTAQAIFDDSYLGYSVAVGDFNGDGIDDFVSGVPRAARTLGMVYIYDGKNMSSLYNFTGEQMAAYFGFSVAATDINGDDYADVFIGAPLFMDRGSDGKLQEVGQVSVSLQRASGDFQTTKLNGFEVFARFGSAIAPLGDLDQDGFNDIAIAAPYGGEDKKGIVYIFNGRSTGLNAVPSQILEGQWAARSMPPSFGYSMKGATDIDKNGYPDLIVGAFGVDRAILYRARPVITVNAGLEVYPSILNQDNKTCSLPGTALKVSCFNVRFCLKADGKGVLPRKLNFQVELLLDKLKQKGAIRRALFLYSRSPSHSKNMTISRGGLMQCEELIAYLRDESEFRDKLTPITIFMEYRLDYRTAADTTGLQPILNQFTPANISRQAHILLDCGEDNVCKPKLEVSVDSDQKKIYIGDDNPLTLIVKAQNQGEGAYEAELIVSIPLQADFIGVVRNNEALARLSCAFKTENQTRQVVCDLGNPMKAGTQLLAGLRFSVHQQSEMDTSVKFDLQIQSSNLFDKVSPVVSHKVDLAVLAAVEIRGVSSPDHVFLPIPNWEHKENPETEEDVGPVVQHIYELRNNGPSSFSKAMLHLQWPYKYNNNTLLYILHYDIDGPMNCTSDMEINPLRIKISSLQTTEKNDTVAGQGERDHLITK
T1 sequence (P06756 891-1048 partner limits assumed): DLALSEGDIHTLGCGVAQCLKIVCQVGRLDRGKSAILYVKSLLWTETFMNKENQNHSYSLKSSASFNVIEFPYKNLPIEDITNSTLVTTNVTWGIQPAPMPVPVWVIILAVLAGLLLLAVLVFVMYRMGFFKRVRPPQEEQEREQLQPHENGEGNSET
T1 sequence (P18084 24-799): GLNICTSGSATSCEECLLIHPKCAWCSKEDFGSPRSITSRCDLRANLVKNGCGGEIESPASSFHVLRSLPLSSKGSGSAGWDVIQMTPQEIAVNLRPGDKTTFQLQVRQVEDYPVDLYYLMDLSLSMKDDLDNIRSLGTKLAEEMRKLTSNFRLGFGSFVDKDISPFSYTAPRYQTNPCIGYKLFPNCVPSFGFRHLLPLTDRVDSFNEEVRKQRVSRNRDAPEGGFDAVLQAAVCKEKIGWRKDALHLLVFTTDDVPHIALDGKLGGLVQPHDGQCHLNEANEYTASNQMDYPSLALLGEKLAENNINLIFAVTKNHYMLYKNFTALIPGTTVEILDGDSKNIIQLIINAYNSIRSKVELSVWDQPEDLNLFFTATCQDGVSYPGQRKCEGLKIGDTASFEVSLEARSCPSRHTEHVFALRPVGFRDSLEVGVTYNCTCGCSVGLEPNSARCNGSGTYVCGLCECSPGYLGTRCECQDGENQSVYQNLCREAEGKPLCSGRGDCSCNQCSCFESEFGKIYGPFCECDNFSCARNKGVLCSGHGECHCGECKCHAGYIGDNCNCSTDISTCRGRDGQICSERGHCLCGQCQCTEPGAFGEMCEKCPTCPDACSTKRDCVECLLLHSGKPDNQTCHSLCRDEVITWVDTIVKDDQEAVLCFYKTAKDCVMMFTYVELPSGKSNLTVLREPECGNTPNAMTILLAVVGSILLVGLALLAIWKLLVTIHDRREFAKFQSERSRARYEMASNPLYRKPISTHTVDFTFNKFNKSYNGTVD

For `N=C(N)NCCC[C@@H]1NC(=O)[C@H](CCCCN)NC(=O)[C@@H](Cc2ccc(O)cc2)NC(=O)[C@H](CC(=O)O)NC(=O)CNC1=O` [cyclo RGDyK], the “effect on irisin-induced phosphorylation of FAK” value (HEK293T integrin αV/β5, 10 nM cyclo RGDyK) was “prevented phosphorylation of FAK significantly”, the “effect on irisin-induced phosphorylation of FAK” value (HEK293T integrin αV/β5, 100 nM cyclo RGDyK) was “blocked the phosphorylation completely” and the IC50 (HEK293T with forced expression of integrin αV/β5, in the presence of irisin, from immunoblot, read-out: IC50 for blocking irisin-integrin αV/β5 signaling (phosphorylation of FAK)) was 0.01 to 0.05 µM.
